Literature values as cited in US20060074243A1, “Hydroxamic acid and amide compounds and their use as protease inhibitors” (Pharmacia Corporation, priority 2002, published 2006).

System: solid tumor cancers (colorectal, pancreatic, ovarian, and prostate)
Details: cited from earlier work

Structure (SMILES): CNC(=O)[C@@H](NC(=O)[C@H](CC(C)C)[C@H](O)C(=O)NO)C(C)(C)C [Marimastat]
- most common drug-related toxicity (clinical trials): musculoskeletal pain and stiffness
- rise of cancer-specific antigens used as surrogate markers for biological activity (patients with advanced, rapidly progressive, treatment-refractory solid tumor cancers): dose-related reduction
